{
  "source": "patent EP4610260B1",
  "about": "“ARYL HETEROCYCLIC KV1.3 INHIBITOR, PREPARATION METHOD THEREFOR, AND USE THEREOF” (Shanghai Shenshi Wise Technology Co., Ltd., priority 2022, dated 2024)",
  "system": "Kv1.3 potassium channel",
  "assay": "Whole-cell patch-clamp assay for inhibitory activity against Kv1.3 (peak current)",
  "type": "cell-based",
  "conditions": "HEK293 cells stably expressing Kv1.3, room temperature",
  "method": "1. Assay for inhibitory activity of compounds against Kv1.X\nHEK293 cells stably expressing Kv1.X (Kv1.1, Kv1.2, Kv1.3, Kv1.4, Kv1.5) potassium channels were cultured in DMEM medium containing 10% fetal bovine serum and 800 µg/mL G418 (geneticin) at a culture temperature of 37 °C and a carbon dioxide concentration of 5%.\n1.2. Fluids used for recording\nThe extracellular fluid contained 40 mM NaCl, 3.5 mM KCl, 1 mM MgCl2•6H2O, 2 mM CaCl2•2H2O, 10 mM D-glucose, 10 mM HEPES, 1.25 mM NaH2PO4•2H2O, and the pH was adjusted to 7.4 with NaOH. The intracellular fluid contained 20 mM KCl, 115 mM K-Aspartic, 1 mM MgCl2•6H2O, 5 mM EGTA, 10 mM HEPES, 2 mM Na2-ATP, and the pH was adjusted to 7.2 with KOH.\nThe voltage stimulation protocol for recording whole-cell Kv1.X potassium currents via patch-clamp was as follows: After formation of a whole-cell seal, the cell membrane voltage was clamped at -80 mV, and then stepped to +40 mV for 500 ms. Data were acquired repeatedly every 30 s and the effect of the drug on Kv1.X currents was observed. […] Then, a slow capacitance compensation was given, and the membrane capacitance and series resistance were recorded. […]\nOnce the whole-cell recorded Kv1.X current stabilized, drug administration was started. […] For each cell, the current detected in the compound-free extracellular liquid was used as its own control group. […]",
  "data": [
    {"molecule": "Oc1ccc(Cl)c(Cl)c1[C@@H]1Cc2nnc([C@H]3C[C@H](O)C3)n2C1", "note": "[Example 71, 3,4-dichloro-2-((S)-3-((1r,3S)-3-hydroxycyclobutyl)-6,7-dihydro-5H-pyrrolo[2,1-c][1,2,4]triazol-6-yl)phenol]", "values": [
      {"measurement": "IC50", "value": 10.3, "unit": "nM"}
    ]},
    {"molecule": "Oc1ccc(Cl)c(Cl)c1[C@@H]1Cc2nnc([C@H]3C[C@@H](O)C3)n2C1", "note": "[Example 70, 3,4-Dichloro-2-((S)-3-((1s,3R)-3-hydroxycyclobutyl)-6,7-dihydro-5H-pyrrolo[2,1-c][1,2,4]triazol-6-yl)phenol]", "values": [
      {"measurement": "IC50", "value": 21.6, "unit": "nM"}
    ]}
  ]
}
